Assay results: patent US20130133650A1, “GAS-BASED TREATMENT FOR INFECTIVE DISEASE” (priority 2010, published 2013)

System: M. tuberculosis H37Rv

Molecule | effect on viability / lethality (words, FIG. 1)
[HH] [hydrogen] | as effective as Bioblend
Carbon dioxide | only a slight lethal effect
